“Also recorded” adds a separate entry of the source. Where no end group is shown, it is not given here.

Series [1] concerns Monocyte-derived dendritic cells. The class given is cell-based, human.
For the next series, the system named is HeLa cells. The experiment in a line: Cellular uptake of fluorescent-labeled peptide vaccines, fluorescent microscopy. The class given is cell-based, human. As to the method:
Methods: In this experiment, the uptake of two fluorescent-labeled peptide vaccines was examined using a fluorescent microscope in cultured cells. HeLa cells were grown on cover slides for one day and then treated with peptide vaccines. Cells were fixed with 4% paraformaldehyde, washed with PBS, and analyzed with fluorescent microscopy.

The test system of series [2] is peritoneal tumour biopsies. The series can be described thus: Transcriptome analysis of the Murcia patient's peritoneal tumour biopsies. Particulars: target of 2nd generation personalized vaccines.
Description: All the putative 8-20 amino acids long epitopes were created from these proteins and used for designing the 2nd generation of personalized vaccines according to the invention. […] These antigens have different length and amino acid sequences. All selected peptide antigen contains multiple highly ranked epitopes (13-66) presented on the cell surface by the patient's HLA class I and class II molecules. The range of the potency score is indicated for the selected epitopes. Epitopes presented by the patient's HLA class I and class II molecules are indicated to induce CD8 and CD4 responses, respectively. As described in the invention, the potency of each epitope in the vaccines was calculated and indicated to inform the physician about the predicted efficacy of the personalised vaccines in the recipient.

On to “Fluoresc-KSS-QYIKANSKFIGITE-RRRRRRRR-LNVPMVATV (fluorescein-KSSQYIKANSKFIGITERRRRRRRRLNVPMVATV)”, for which, in series [1], the “uptake in dendritic cells compared to the control vaccines” value is recorded as “substantial increase in the uptake; also recorded: exceptional uptake”.

On to “Fluoresc-KSSQYIKANSKFIGITEAAALNVPMVATV-NH2 (fluorescein-KSSQYIKANSKFIGITEAAALNVPMVATV-NH2) [peptide vaccines (CD4-CD8), control peptide vaccine lacking the R8 component, reference compound]”, for which the cellular uptake result in the series on HeLa cells (120 minutes) was “poorly detectable cellular uptake”.

As to “Fluoresc-KSSQYIKANSKFIGITERRRRRRRRLNVPMVATV-NH2 (fluorescein-KSSQYIKANSKFIGITERRRRRRRRLNVPMVATV-NH2) [vaccine (CD4-R8-CD8)]”, the cellular uptake entry in the series with HeLa cells (120 minutes) was “diffuse distribution throughout the cytoplasm and nucleus”; in the series with HeLa cells (within 30 minutes), “rapid uptake into both the cytoplasm and nucleus”. Besides, in the series with HeLa cells (after 30 minutes and 120 minutes of incubation), the “cellular uptake compared to the control vaccines” value was “substantial increase in the uptake”.

B1: ATAD2 (protein, UniProt Q6PL18 1-1390, looked up)
ATPase family AAA …: MVVLRSSLELHNHSAASATGSLDLSSDFLSLEHIGRRRLRSAGAAQKKPAATTAKAGDGSSVKEVETYHRTRALRSLRKDAQNSSDSSFEKNVEITEQLANGRHFTRQLARQQADKKKEEHREDKVIPVTRSLRARNIVQSTEHLHEDNGDVEVRRSCRIRSRYSGVNQSMLFDKLITNTAEAVLQKMDDMKKMRRQRMRELEDLGVFNETEESNLNMYTRGKQKDIQRTDEETTDNQEGSVESSEEGEDQEHEDDGEDEDDEDDDDDDDDDDDDDDEDDEDEEDGEEENQKRYYLRQRKATVYYQAPLEKPRHQRKPNIFYSGPASPARPRYRLSSAGPRSPYCKRMNRRRHAIHSSDSTSSSSSEDEQHFERRRKRSRNRAINRCLPLNFRKDELKGIYKDRMKIGASLADVDPMQLDSSVRFDSVGGLSNHIAALKEMVVFPLLYPEVFEKFKIQPPRGCLFYGPPGTGKTLVARALANECSQGDKRVAFFMRKGADCLSKWVGESERQLRLLFDQAYQMRPSIIFFDEIDGLAPVRSSRQDQIHSSIVSTLLALMDGLDSRGEIVVIGATNRLDSIDPALRRPGRFDREFLFSLPDKEARKEILKIHTRDWNPKPLDTFLEELAENCVGYCGADIKSICAEAALCALRRRYPQIYTTSEKLQLDLSSINISAKDFEVAMQKMIPASQRAVTSPGQALSTVVKPLLQNTVDKILEALQRVFPHAEFRTNKTLDSDISCPLLESDLAYSDDDVPSVYENGLSQKSSHKAKDNFNFLHLNRNACYQPMSFRPRILIVGEPGFGQGSHLAPAVIHALEKFTVYTLDIPVLFGVSTTSPEETCAQVIREAKRTAPSIVYVPHIHVWWEIVGPTLKATFTTLLQNIPSFAPVLLLATSDKPHSALPEEVQELFIRDYGEIFNVQLPDKEERTKFFEDLILKQAAKPPISKKKAVLQALEVLPVAPPPEPRSLTAEEVKRLEEQEEDTFRELRIFLRNVTHRLAIDKRFRVFTKPVDPDEVPDYVTVIKQPMDLSSVISKIDLHKYLTVKDYLRDIDLICSNALEYNPDRDPGDRLIRHRACALRDTAYAIIKEELDEDFEQLCEEIQESRKKRGCSSSKYAPSYYHVMPKQNSTLVGDKRSDPEQNEKLKTPSTPVACSTPAQLKRKIRKKSNWYLGTIKKRRKISQAKDDSQNAIDHKIESDTEETQDTSVDHNETGNTGESSVEENEKQQNASESKLELRNNSNTCNIENELEDSRKTTACTELRDKIACNGDASSSQIIHISDENEGKEMCVLRMTRARRSQVEQQQLITVEKALAILSQPTPSLVVDHERLKNLLKTVVKKSQNYNIFQLENLYAVISQCIYRHRKDHDKTSLIQKMEQEVENFSCSR
Turning to B1, the Relative expression in series [2] was found to be 9.

B2: ODF2 (protein, UniProt Q5BJF6 1-829, looked up)
Outer dense fiber protein 2: MSASSSGGSPRFPSCGKNGVTSLTQKKVLRAPCGAPSVTVTKSHKRGMKGDTVNVRRSVRVKTKVPWMPPGKSSARPVGCKWENPPHCLEITPPSSEKLVSVMRLSDLSTEDDDSGHCKMNRYDKKIDSLMNAVGCLKSEVKMQKGERQMAKRFLEERKEELEEVAHELAETEHENTVLRHNIERMKEEKDFTILQKKHLQQEKECLMSKLVEAEMDGAAAAKQVMALKDTIGKLKTEKQMTCTDINTLTRQKELLLQKLSTFEETNRTLRDLLREQHCKEDSERLMEQQGALLKRLAEADSEKARLLLLLQDKDKEVEELLQEIQCEKAQAKTASELSKSMESMRGHLQAQLRSKEAENSRLCMQIKNLERSGNQHKAEVEAIMEQLKELKQKGDRDKESLKKAIRAQKERAEKSEEYAEQLHVQLADKDLYVAEALSTLESWRSRYNQVVKEKGDLELEIIVLNDRVTDLVNQQQTLEEKMREDRDSLVERLHRQTAEYSAFKLENERLKASFAPMEDKLNQAHLEVQQLKASVKNYEGMIDNYKSQVMKTRLEADEVAAQLERCDKENKILKDEMNKEIEAARRQFQSQLADLQQLPDILKITEAKLAECQDQLQGYERKNIDLTAIISDLRSRIEHQGDKLEMAREKHQASQKENKQLSLKVDELERKLEATSAQNIEFLQVIAKREEAIHQSQLRLEEKTRECGTLARQLESAIEDARRQVEQTKEHALSKERAAQNKILDLETQLSRTKTELSQLRRSRDDADRRYQSRLQDLKDRLEQSESTNRSMQNYVQFLKSSYANVFGDGPYSTFLTSSPIRSRSPPA
Turning to B2, the Relative expression in series [2] is 19.
